Laboratory results as given in patent US9155309B2, “Virus inactivating sheet” (priority 2009, dated 2015).
Where two headings read alike, the source gives them in different places.

Tested on: influenza virus (influenza A/Kitakyusyu/159/93(H3N2))
Type: cell-based
Settings: 10 minutes at room temperature, PBS control 128

## [Cu+].[Cu+].[S-2] [compound 26, COPPER(I) SULFIDE]
Material concentration 0.5 percent by mass in PBS
  HA TITER: 64
Material concentration 5 percent by mass in PBS
  HA TITER: 16
